# Measurements published in patent publication US20090016990A1, “Antimicrobial Compositions” (priority 2007, published 2009).
# What was measured:
# Assay type in all cases: cell-based
# P aeruginosa 10145 = assay: Synergy of Zosteric Acid (ZA) with HOCL, MIC in M9GY; details: M9GY
# [1] = test system: Pseudomonas aeruginosa ATCC 27853; assay: MBEC assay, biofilm inhibition (prevention of biofilm formation), MBEC bioFILM PA panel; design: MBEC-Biofilm Inhibition, Without compound 9 / MBEC-Biofilm Inhibition, Without compound 6 / MBEC-Biofilm Inhibition, Without compound 2 / MBEC-Biofilm Inhibition, Without compound 7 / MBEC-Biofilm Inhibition, With 0.01% compound 7 in 5% EtOH/PBS / MBEC-Biofilm Inhibition, without salt of compound 2 / MBEC-Biofilm Inhibition, with 0.1% salt of compound 2 / MBEC-Biofilm Inhibition, without salt of compound 6: unit not given here; details: for MBEC-Biofilm Inhibition, without salt of compound 2 / MBEC-Biofilm Inhibition, with 0.1% salt of compound 2: Table 9; for MBEC-Biofilm Inhibition, without salt of compound 2 / MBEC-Biofilm Inhibition, without salt of compound 6: antibiotic or antibiotic combination alone; for MBEC-Biofilm Inhibition, without salt of compound 2 / MBEC-Biofilm Inhibition, with 0.1% salt of compound 2 / MBEC-Biofilm Inhibition, without salt of compound 6 / MBEC-Biofilm Inhibition, with 0.1% salt of compound 6: value per component; for MBEC-Biofilm Inhibition, without salt of compound 2: separated by /; for MBEC-Biofilm Inhibition, with 0.1% salt of compound 2: antibiotic or combination plus 0.1% salt of compound 2; for MBEC-Biofilm Inhibition, without salt of compound 6 / MBEC-Biofilm Inhibition, with 0.1% salt of compound 6: Table 10; for MBEC-Biofilm Inhibition, with 0.1% salt of compound 6: antibiotic or combination plus 0.1% salt of compound 6; for MBEC-Biofilm Inhibition, Without compound 1 / MBEC-Biofilm Inhibition, Without compound 2 / MBEC-Biofilm Inhibition, Without compound 3 / MBEC-Biofilm Inhibition, Without compound 6 / MBEC-Biofilm Inhibition, Without compound 7 / MBEC-Biofilm Inhibition, Without compound 9: antibiotic alone
# [2] = test system: Pseudomonas aeruginosa ATCC 27853; assay: MBEC assay, biofilm elimination, MBEC bioFILM PA panel; design: MBEC-Biofilm Elimination, Without compound 2 / MBEC-Biofilm Elimination, With 0.01% compound 2 in 5% EtOH/PBS / MBEC-Biofilm Elimination, Without compound 7 / MBEC-Biofilm Elimination, With 0.01% compound 7 in 5% EtOH/PBS / MBEC-Biofilm Elimination, Without compound 1 / MBEC-Biofilm Elimination, With 0.01% compound 1 in 5% EtOH/PBS / MBEC-Biofilm Elimination, without salt of compound 2 / MBEC-Biofilm Elimination, with 0.1% salt of compound 2: unit not given here; details: for MBEC-Biofilm Elimination, without salt of compound 2 / MBEC-Biofilm Elimination, with 0.1% salt of compound 2: Table 9; for MBEC-Biofilm Elimination, without salt of compound 2 / MBEC-Biofilm Elimination, without salt of compound 6: antibiotic or antibiotic combination alone; for MBEC-Biofilm Elimination, without salt of compound 2 / MBEC-Biofilm Elimination, with 0.1% salt of compound 2 / MBEC-Biofilm Elimination, without salt of compound 6 / MBEC-Biofilm Elimination, with 0.1% salt of compound 6: value per component; for MBEC-Biofilm Elimination, with 0.1% salt of compound 2: antibiotic or combination plus 0.1% salt of compound 2; for MBEC-Biofilm Elimination, without salt of compound 6 / MBEC-Biofilm Elimination, with 0.1% salt of compound 6: Table 10; for MBEC-Biofilm Elimination, with 0.1% salt of compound 6: antibiotic or combination plus 0.1% salt of compound 6; for MBEC-Biofilm Elimination, Without compound 1 / MBEC-Biofilm Elimination, Without compound 2 / MBEC-Biofilm Elimination, Without compound 3 / MBEC-Biofilm Elimination, Without compound 6 / MBEC-Biofilm Elimination, Without compound 7 / MBEC-Biofilm Elimination, Without compound 9: antibiotic alone
# [3] = with 0.01% compound 1 in 5% EtOH/PBS
smiles,measurement,setting,value
OCl [HOCl],"MIC at 24 hours, Qhocl",P aeruginosa 10145; HOCL alone,40 ppm
same,"MIC at 48 hours, Qhocl",P aeruginosa 10145; HOCL alone,40 ppm
same,"MIC at 24 hours, Qhocl",P aeruginosa 10145; HOCL with ZA (Qza) 0 ppm,50 ppm
same,"MIC at 48 hours, Qhocl",P aeruginosa 10145; HOCL with ZA (Qza) 0 ppm,60 ppm
same,"SI-HOCL, 24 hours",P aeruginosa 10145; HOCL with ZA (Qza) 0 ppm,1.25
same,"SI-HOCL, 48 hours",P aeruginosa 10145; HOCL with ZA (Qza) 0 ppm,1.5
same,"MIC at 24 hours, Qhocl",P aeruginosa 10145; HOCL with ZA (Qza) 250 ppm,30 ppm
same,"MIC at 48 hours, Qhocl",P aeruginosa 10145; HOCL with ZA (Qza) 250 ppm,30 ppm
same,"SI-HOCL, 24 hours",P aeruginosa 10145; HOCL with ZA (Qza) 250 ppm,0.775
same,"SI-HOCL, 48 hours",P aeruginosa 10145; HOCL with ZA (Qza) 250 ppm,0.775
same,"MIC at 24 hours, Qhocl",P aeruginosa 10145; HOCL with ZA (Qza) 500 ppm,50 ppm
same,"MIC at 48 hours, Qhocl",P aeruginosa 10145; HOCL with ZA (Qza) 500 ppm,50 ppm
same,"SI-HOCL, 24 hours",P aeruginosa 10145; HOCL with ZA (Qza) 500 ppm,1.3
same,"SI-HOCL, 48 hours",P aeruginosa 10145; HOCL with ZA (Qza) 500 ppm,1.3
same,"MIC at 24 hours, Qhocl",P aeruginosa 10145; HOCL with ZA (Qza) 1000 ppm,50 ppm
same,"MIC at 48 hours, Qhocl",P aeruginosa 10145; HOCL with ZA (Qza) 1000 ppm,50 ppm
same,"SI-HOCL, 24 hours",P aeruginosa 10145; HOCL with ZA (Qza) 1000 ppm,1.35
same,"SI-HOCL, 48 hours",P aeruginosa 10145; HOCL with ZA (Qza) 1000 ppm,1.35
same,"MIC at 24 hours, Qhocl",P aeruginosa 10145; HOCL with ZA (Qza) 2500 ppm,50 ppm
same,"MIC at 48 hours, Qhocl",P aeruginosa 10145; HOCL with ZA (Qza) 2500 ppm,50 ppm
same,"SI-HOCL, 24 hours",P aeruginosa 10145; HOCL with ZA (Qza) 2500 ppm,1.5
same,"SI-HOCL, 48 hours",P aeruginosa 10145; HOCL with ZA (Qza) 2500 ppm,1.5
same,"MIC at 24 hours, Qhocl",P aeruginosa 10145; HOCL with ZA (Qza) 5000 ppm,40 ppm
same,"MIC at 48 hours, Qhocl",P aeruginosa 10145; HOCL with ZA (Qza) 5000 ppm,40 ppm
same,"SI-HOCL, 24 hours",P aeruginosa 10145; HOCL with ZA (Qza) 5000 ppm,1.5
same,"SI-HOCL, 48 hours",P aeruginosa 10145; HOCL with ZA (Qza) 5000 ppm,1.5
same,"MIC at 24 hours, Qhocl",P aeruginosa 10145; HOCL with ZA (Qza) 7500 ppm,40 ppm
same,"MIC at 48 hours, Qhocl",P aeruginosa 10145; HOCL with ZA (Qza) 7500 ppm,50 ppm
same,"SI-HOCL, 24 hours",P aeruginosa 10145; HOCL with ZA (Qza) 7500 ppm,1.75
same,"SI-HOCL, 48 hours",P aeruginosa 10145; HOCL with ZA (Qza) 7500 ppm,2
same,"MIC at 24 hours, Qhocl",P aeruginosa 10145; HOCL with ZA (Qza) 10000 ppm,60 ppm
same,"MIC at 48 hours, Qhocl",P aeruginosa 10145; HOCL with ZA (Qza) 10000 ppm,60 ppm
same,"SI-HOCL, 24 hours",P aeruginosa 10145; HOCL with ZA (Qza) 10000 ppm,2.5
same,"SI-HOCL, 48 hours",P aeruginosa 10145; HOCL with ZA (Qza) 10000 ppm,2.5
"C[C@@H](O)[C@H]1C(=O)N2C(C(=O)O)=C(S[C@@H]3CN[C@H](C(=O)N(C)C)C3)[C@H](C)[C@H]12 [MER, meropenem]","MBEC-Biofilm Inhibition, without salt of compound 2",[1],>2
same,"MBEC-Biofilm Inhibition, with 0.1% salt of compound 2",[1],>2
same,"MBEC-Biofilm Inhibition, without salt of compound 6",[1],>2
same,"MBEC-Biofilm Inhibition, with 0.1% salt of compound 6",[1],>2
same,"MBEC-Biofilm Inhibition, Without compound 1",[1],>2
same,"MBEC-Biofilm Inhibition, Without compound 2",[1],>2
same,"MBEC-Biofilm Inhibition, Without compound 3",[1],>2
same,"MBEC-Biofilm Inhibition, Without compound 6",[1],>2
same,"MBEC-Biofilm Inhibition, Without compound 7",[1],>2
same,"MBEC-Biofilm Inhibition, Without compound 9",[1],>2
same,"MBEC-Biofilm Inhibition, With 0.01% compound 1 in 5% EtOH/PBS",[1]; [3],>2
same,"MBEC-Biofilm Inhibition, With 0.01% compound 2 in 5% EtOH/PBS",[1],>2
same,"MBEC-Biofilm Inhibition, With 0.01% compound 7 in 5% EtOH/PBS",[1],>2
same,"MBEC-Biofilm Inhibition, With 0.05% compound 3 in 5% EtOH/PBS",[1],>2
same,"MBEC-Biofilm Inhibition, With 0.05% compound 6 in 5% EtOH/PBS",[1],>2
same,"MBEC-Biofilm Inhibition, With 0.1% w/v compound 9 in PBS",[1],>2
same,"MBEC-Biofilm Elimination, without salt of compound 2",[2],>1
same,"MBEC-Biofilm Elimination, with 0.1% salt of compound 2",[2],>1
same,"MBEC-Biofilm Elimination, without salt of compound 6",[2],>1
same,"MBEC-Biofilm Elimination, with 0.1% salt of compound 6",[2],>1
same,"MBEC-Biofilm Elimination, Without compound 1",[2],>1
same,"MBEC-Biofilm Elimination, Without compound 2",[2],>1
same,"MBEC-Biofilm Elimination, Without compound 3",[2],>1
same,"MBEC-Biofilm Elimination, Without compound 6",[2],>1
same,"MBEC-Biofilm Elimination, Without compound 7",[2],>1
same,"MBEC-Biofilm Elimination, Without compound 9",[2],>1
same,"MBEC-Biofilm Elimination, With 0.01% compound 1 in 5% EtOH/PBS",[2],>1
same,"MBEC-Biofilm Elimination, With 0.01% compound 2 in 5% EtOH/PBS",[2],>1
same,"MBEC-Biofilm Elimination, With 0.01% compound 7 in 5% EtOH/PBS",[2],>1
same,"MBEC-Biofilm Elimination, With 0.05% compound 3 in 5% EtOH/PBS",[2],1
same,"MBEC-Biofilm Elimination, With 0.05% compound 6 in 5% EtOH/PBS",[2],>1
same,"MBEC-Biofilm Elimination, With 0.1% w/v compound 9 in PBS",[2],>1
"NC[C@H]1O[C@H](O[C@H]2[C@H](O)[C@@H](O[C@H]3O[C@H](CO)[C@@H](O)[C@H](N)[C@H]3O)[C@H](N)C[C@@H]2N)[C@H](N)C[C@@H]1O [TO, tobramycin]","MBEC-Biofilm Inhibition, without salt of compound 2",[1],>2
same,"MBEC-Biofilm Inhibition, with 0.1% salt of compound 2",[1],>2
same,"MBEC-Biofilm Inhibition, without salt of compound 6",[1],>2
same,"MBEC-Biofilm Inhibition, with 0.1% salt of compound 6",[1],>2
same,"MBEC-Biofilm Inhibition, Without compound 1",[1],>2
same,"MBEC-Biofilm Inhibition, Without compound 2",[1],>2
same,"MBEC-Biofilm Inhibition, Without compound 3",[1],>2
same,"MBEC-Biofilm Inhibition, Without compound 6",[1],>2
same,"MBEC-Biofilm Inhibition, Without compound 7",[1],>2
same,"MBEC-Biofilm Inhibition, Without compound 9",[1],2
same,MBEC,"[1]; antibiotic or combination alone, concentrations in order of the combination",>2 µg/mL
same,"MBEC, μg/mL +Compound 1",[1]; antibiotic plus Compound 1,0.5 to 2 µg/mL
same,"MBEC, μg/mL +Compound 2",[1]; antibiotic plus Compound 2,>2 µg/mL
same,"MBEC, μg/mL +Compound 7",[1]; antibiotic plus Compound 7,>2 µg/mL
same,(% reduction) +Compound 1,[1]; reduction of antibiotic or combination required to prevent biofilm formation,> 50%
same,"MBEC-Biofilm Inhibition, With 0.01% compound 1 in 5% EtOH/PBS",[1]; [3],0.5-2
same,value in parentheses after MBEC-Biofilm Inhibition with 0.01% compound 1 (% reduction as in Table 2),[1]; [3],≥ 50
same,"MBEC-Biofilm Inhibition, With 0.01% compound 2 in 5% EtOH/PBS",[1],>2
same,"MBEC-Biofilm Inhibition, With 0.01% compound 7 in 5% EtOH/PBS",[1],>2
same,"MBEC-Biofilm Inhibition, With 0.05% compound 3 in 5% EtOH/PBS",[1],>2
same,"MBEC-Biofilm Inhibition, With 0.05% compound 6 in 5% EtOH/PBS",[1],>2
same,"MBEC-Biofilm Inhibition, With 0.1% w/v compound 9 in PBS",[1],>2
same,"MBEC-Biofilm Elimination, without salt of compound 2",[2],>2
same,"MBEC-Biofilm Elimination, with 0.1% salt of compound 2",[2],>2
same,"MBEC-Biofilm Elimination, without salt of compound 6",[2],>2
same,"MBEC-Biofilm Elimination, with 0.1% salt of compound 6",[2],>2
same,"MBEC-Biofilm Elimination, Without compound 1",[2],>2
same,"MBEC-Biofilm Elimination, Without compound 2",[2],>2
same,"MBEC-Biofilm Elimination, Without compound 3",[2],>2
same,"MBEC-Biofilm Elimination, Without compound 6",[2],>2
same,"MBEC-Biofilm Elimination, Without compound 7",[2],>2
same,"MBEC-Biofilm Elimination, Without compound 9",[2],>2
same,"MBEC-Biofilm Elimination, With 0.01% compound 1 in 5% EtOH/PBS",[2],>2
same,"MBEC-Biofilm Elimination, With 0.01% compound 2 in 5% EtOH/PBS",[2],1
same,"MBEC-Biofilm Elimination, With 0.01% compound 7 in 5% EtOH/PBS",[2],0.5
same,"MBEC-Biofilm Elimination, With 0.05% compound 3 in 5% EtOH/PBS",[2],>2
same,"MBEC-Biofilm Elimination, With 0.05% compound 6 in 5% EtOH/PBS",[2],>2
same,"MBEC-Biofilm Elimination, With 0.1% w/v compound 9 in PBS",[2],>2
